Tests used:
monocyte = details: literature; cited from earlier work
colo 320 cells [1] = tested on: colo 320 cells
colo 320 cells [2] = assay type: cell-based, human
U937 cells [3] = experiment: caspase 9 assay; assay type: cell-based, human; details: with SPK
Protocol: (§1) The cells used in this example originated from the cell line U937 cells and were purchased from ATCC.
The cells were treated in a 6-well plate with the treatment plan of control, A1 10 μM, A2 10 μM, SPK10 μM, A1+SPK10 μM, and A2+SPK10 μM for 24 hours and collected in a 1.5 ml tube. Then, Colo cells were lysed by freezing and thawing 4 times. Then, 50 μl of caspase assay buffer will be added to every well of an empty 96-well plate. Also, 50 μl of lysis buffer will be added to the blank wells and 45 μl added to the treatment and control wells. 5 μl of lysed cells will be added to each treatment well with 5 μl of pNA Substrate Solution indeed to every well. The plate will then be taken for a reading at zero time point using a microplate reader at 405 nm. Afterwards, the plate will be covered and incubated at 37 degrees Celsius. […] The data from the Caspase Assay will be analyzed by calculating the change in optical density per minute (ΔOD). The ΔOD is obtained through subtracting the sample's start OD from the sample's final OD to determine the overall change in absorbance. The ΔOD/minutes is calculated by taking the ΔOD and dividing by the overall time in minutes. The ΔOD per minute of each sample is compared to the control by a percent change to determine the activity of caspase and apoptosis. The OD of the blank samples are subtracted from the OD of the treated sample to normalize the data and ensure minimal interference.

U937 cells [4] = assay type: cell-based, human
U937 cells [5] = experiment: LDH assay (percent cytotoxicity); assay type: cell-based, human; details: for cytotoxicity decrease: 10 μM, cytotoxicity induced by SPK; for effect on SPK-induced cytotoxicity at higher concentration: as concentrations increased (100 μM); for effect on cytotoxic effect of SPK (LDH): combined with SPK
Protocol: as §1
10 μls of chemicals provided by ATCC were added into a 96-well plate with the treatment plan of control, control, control, SPK 10 μM, A1 10 μM, A1 100 μM, A2 10 μM, A2 100 μM, SPK+A1 10 μM, SPK+A1 100 μM, SPK+A2 10 μM, and SPK+A2 100 μM. After incubation for 48 hours, 30 μls of media from each well were removed and added into another 96 well plate labeled as released LDH. 30 microliters of LDH substrate mix were added to the released LDH plate to measure the released LDH by the cells from the treatments. This plate was left at room temperature and away from direct light for 30 minutes. After 30 minutes, 30 μls of LDH stop solution was added to each well to terminate the assay and prevent further color changes. The plate was placed in a microplate reader and optical density (OD) was determined for each sample at 490 nm. Another reading at 655 nm was performed to determine if there was any background interference with the reading. Then, 10 μls of LDH lysis buffer were added to the original plate containing the cells to lyse all the cells and to measure a total or maximum LDH for each sample. Another empty 96 well plate was then labeled total LDH. 30 μls of the cell lysate and media were transferred from the original plate containing the lysed cells into the empty 96 well plate labeled as total LDH. 30 μls of LDH substrate mix were added to each sample to measure the total LDH. The plate was left at room temperature for 30 minutes away from direct light. After the 30 minutes, 30 μls of LDH stop solution were added to each well to terminate the experiment. The OD of the total LDH plate was measured following the same measurement steps for the released LDH. The data collected from the 490 nm wavelength was subtracted by the data collected from the 655 nm wavelength to find the corrected OD for each sample's released and total LDH. The percent cytotoxicity was later calculated by the equation: (Sample OD released LDH−control OD released LDH)/(Sample OD total LDH−control OD released LDH)*100 and T-tests were applied to each group to measure significance for percent cytotoxicity.

SMILES | monocyte cell adhesion (monocyte) | mitigation of SPK induced cytotoxicity (colo 320 cells [1]) | mitigation of SPK induced caspase apoptosis (colo 320 cells [2]) | decrease of caspase activity that was increased by SPK (U937 cells [3]) | effect on SPK caused apoptosis (caspase) (U937 cells [3]) | decrease in adhesion molecule expression (U937 cells [4]) | decrease of cell adhesion (U937 cells [4]) | effect on adhesion molecule expression, in words (U937 cells [4]) | cytotoxicity decrease (U937 cells [5]) | effect on SPK-induced cytotoxicity at higher concentration (U937 cells [5]) | effect on cytotoxic effect of SPK (LDH) (U937 cells [5])
C[C@@H]1CC[C@H]2[C@@H](C)C(=O)O[C@@H]3O[C@@]4(C)CC[C@@H]1[C@]32OO4 [A1, Artemisinin] | inhibit monocyte cell adhesion | changed the cytotoxicity to a negative value | remediate the increase in caspase apoptosis to a negative level | around 68% | decrease SPK caused apoptosis significantly | around 70% | about 73% | significantly decreased the adhesion molecule expression | around 2.4% | the effectiveness decreased | reversed the cytotoxic effect of SPK from a positive value to a negative value
C[C@H]1[C@H](OC(=O)CCC(=O)O)O[C@@H]2O[C@@]3(C)CC[C@H]4[C@H](C)CC[C@@H]1[C@@]24OO3 [A2, Artesunate] | inhibit monocyte cell adhesion | changed the cytotoxicity to a negative value | remediate the increase in caspase apoptosis to a negative level | ~70% | decrease SPK caused apoptosis significantly | around 68% | around 70% | significantly decreased the adhesion molecule expression | around 0.8% | the effectiveness decreased | reversed the cytotoxic effect of SPK from a positive value to a negative value
